Data published in patent US20180111893A1, “POLYCATIONIC AMPHIPHILES AND POLYMERS THEREOF AS ANTIMICROBIAL AGENTS AND METHODS USING SAME” (Temple University-Of The Commonwealth System of Higher …, priority 2015, published 2018).

Key:
[1] = system: methicillin-resistant Staphyloccocus aureus (MRSA); details: at 350 μm, cited from earlier work
CA-MRSA strain = experiment: Reactivation assay (sub-MIC co-dosing); format: cell-based, Staphylococcus aureus; details: sub-MIC concentrations of TET-14,0,0, varying concentrations of triscationic variant
From the text: It was hypothesized that by using a reactivation assay (essentially the inverse of a potentiation assay), the role QacR plays in monoQAC resistance could be better understood. […] Other possible hypotheses include that QacR may be activated by our monoQACs but that QacA cannot efflux the trisQACs or that the resistance mechanism implicated for TET-14,0,0 may be orthogonal to the Qac system.

red blood cells = format: cell-based, sheep
Procedure: To date, synthesized compounds have been evaluated against planktonic bacteria (E. coli, S. aureus, P. aeruginosa, E. facaelis) and bacterial biofilms (E. facaelis, S. aureus, MRSA); new compounds are similarly assessed. All compounds are also evaluated via a hemolysis assay to assess their ability to lyse red blood cells (RBC) (Nagamune et al., 2000, Toxicology in Vitro 14:139-147). The assay is conducted following a known protocol to determine the concentration of compound that causes 20% of RBCs to be lysed. […] All compounds are benchmarked against three commercial antiseptics—benzalkonium chloride, DDAC, and CHX (FIG. 1).
Hemolysis assays were performed according to a known method (Peng et al., 2011, Chem. Comm. 47:4896-4898). Defibrinated sheep blood was purchased from Hemostat Labs (DSB030). Compounds representative of each class were serially diluted in sterile PBS from stock solutions and incubated with resuspended blood cells. The OD of the final suspensions were measured directly using plate reader. TritonX (1% by volume) served as a positive control (100% lysis marker) and sterile PBS served as a negative control (0% lysis marker).

[2] = system: MRSA biofilms (S. aureus USA300-0114); experiment: Minimum biofilm eradication concentration (MBEC), regrowth assay; format: cell-based, Staphylococcus aureus; details: Table 2; pre-formed MRSA biofilms
Procedure: (§1) A regrowth assay was used to establish the MBEC of a compound to evaluate the antibiofilm activity. See also H. Ceri, M. Olson, D. Morck, D. Storey, R. Read, A. Buret, B. Olson, Methods Enzymol. 2001, 337, 377, which is incorporated by reference herein in its entirety.
(§2) To each well of a flat-bottomed 96-well plate (Corning 3370), 8 μL of overnight bacterial culture was brought to a volume of 200 μL with fresh media (BHI for MSSA and MRSA). Plates were incubated statically for 24 hours at 37° C. to establish biofilms. After 24 hours, the wells were carefully emptied by inverting the plate and gently shaking. A pre-mixed solution of media and compound stock solution was added to each well and plates were incubated at 37° C. 16 hours after pre-established biofilms were treated with compound, the media from each well was removed, biofilms were washed three times with 200 μL PBS to remove planktonic cells, and biofilms were incubated overnight at 37° C. in 200 μL of fresh media to allow any viable cells to continue growing. The wells were then vigorously pipetted to resuspend the biofilm cells and the OD at 595 nm was measured using a plate reader (POLARstar Omega, BMG Labtech). Biofilms reaching a final OD of less than 0.1 were considered eradicated and the lowest concentration of antibiotic corresponded to the MBEC. Four replicates were completed for each concentration of compound as well as positive and negative controls.

[3] = system: Staphylococcus aureus (SA; MSSA SH1000); experiment: Minimum inhibitory concentration (MIC); format: cell-based
Procedure: (§3) As used herein, the term “minimum inhibitory concentration (MIC)” refers to the lowest concentration of an antimicrobial agent that will inhibit the visible growth of a microorganism after overnight incubation. MIC values against bacteria, for example, the Gram-positive Staphylococcus aureus and Enterococcus faecalis and the Gram-negative Escherichia coli and Pseudomonas aeruginosa were determined by standard methods. See also P. A. Wayne, Methods for Dilution Antimicrobial Tests for Bacteria that Grow Aerobically; Approved Standard, Ninth Edition, 2012, CLSI Document M07-A9, Vol. 32 No. 2, which is incorporated by reference herein in its entirety.
(§4) Compounds were serially diluted two-fold from a 10% DMSO/aqueous stock solution to yield twelve test concentrations. Overnight S. aureus, E. faecalis, E. coli, P. aeruginosa, CA-MRSA, and HA-MRSA cultures diluted to ca. 10^6 cfu/mL in Mueller-Hinton media and 100 μL were inoculated into each well of a U-bottom 96-well plate (BD Biosciences, BD351177) containing 100 μL of compound solution. Plates were incubated statically at 37° C. for 72 hours upon which time wells were evaluated visually for bacterial growth. The MIC was determined as the lowest concentration of compound resulting in no bacterial growth visible to the naked eye, based on the majority of three independent experiments. Positive and negative DMSO/aqueous solution and media controls were conducted for each trial. See Peng et al., 2011, Chem. Comm. 47:4896-4898.
as §4, with “trial.” for “trial. See Peng et al., 2011, Chem. Comm. 47:4896-4898.”

[4] = system: Escherichia coli (MC4100); experiment: Minimum inhibitory concentration (MIC); format: cell-based
Procedure: as §3, §4
as §4, with “trial.” for “trial. See Peng et al., 2011, Chem. Comm. 47:4896-4898.”

[5] = system: Enterococcus faecalis (OG1RF); experiment: Minimum inhibitory concentration (MIC); format: cell-based
Procedure: as §3, §4
as §4, with “trial.” for “trial. See Peng et al., 2011, Chem. Comm. 47:4896-4898.”

[6] = system: Pseudomonas aeruginosa (PAO1); experiment: Minimum inhibitory concentration (MIC); format: cell-based
Procedure: as §3, §4
as §4, with “trial.” for “trial. See Peng et al., 2011, Chem. Comm. 47:4896-4898.”

[7] = system: hospital-acquired methicillin-resistant Staphylococcus aureus HA-MRSA (ATCC 33591); experiment: Minimum inhibitory concentration (MIC); format: cell-based; details: Table 6
Procedure: as §3, §4
as §4, with “trial.” for “trial. See Peng et al., 2011, Chem. Comm. 47:4896-4898.”

[8] = system: Enterococcus faecalis biofilms; experiment: Minimum biofilm eradication concentration (MBEC), regrowth assay; format: cell-based; details: Table 1
From the text: as §1

[9] = system: Staphylococcus aureus (MSSA) biofilms; experiment: as above; format: cell-based; details: Table 1
Procedure: as §1, §2

[10] = system: community-acquired methicillin-resistant Staphylococcus aureus CA-MRSA (USA300-0114); experiment: Minimum inhibitory concentration (MIC); format: cell-based
Procedure: as §3, §4
as §4, with “trial.” for “trial. See Peng et al., 2011, Chem. Comm. 47:4896-4898.”

Pseudomonas aeruginosa = system: Pseudomonas aeruginosa; set-up: MIC against Pseudomonas aeruginosa: unit not given here; details: cited from earlier work
[11] = system: two MRSA strains-USA300-0114 and ATCC33591; experiment: MIC against MRSA strains compared to MSSA; format: cell-based, Staphylococcus aureus; details: natural product-derived QACs; for susceptibility to QAC/MRSA resistance: MSSA vs MRSA, in words
Procedure: as §4
MIC values against Gram-positive Staphylococcus aureus (methicillin-susceptible Staphyloccocus aureus (MSSA) and two MRSA strains-USA300-0114 and ATCC33591) and Enterococcus faecalis and Gram-negative Escherichia coli and P. aeruginosa were determined according to standard, and results appear in Table 4.

[12] = system: six bacteria (SA, HA-MRSA, CA-MRSA, EF, EC, PA); experiment: MIC against the panel of bacteria tested; format: cell-based; details: quinine- and nicotine-derived QACs; in words
Procedure: as §3
The complete set of MIC values against six bacteria [Staphylococcus aureus (SA), hospital-acquired methicillin-resistant SA (HA-MRSA), community-acquired methicillin-resistant SA (CA-MRSA), Enterococcus faecalis (EF), Escherichia coli (EC), and Pseudomonas aeruginosa (PA)] is presented in Table 3, wherein multiQACs are grouped with their monoQAC counterparts. The dye-based QACs with greatest inhibition of the complete range of Gram-positive and Gram-negative bacteria featured bis- or tris-quaternization, with the optimal alkyl total ranging from 17-24 carbons. For example, comparison of two biscationic series -LMG-n,1 and LMG-n,n—evaluates the effect of total alkyl chain length in retention of efficacy against the more challenging CA-MRSA and the Gram-negative strains EC and PA.
as §4

For `COc1cc2c(cc1O)[C@@H](Cc1ccc(O)cc1)[N+](C)(C)CC2` [magnocuraine, magnocurarine], the “effectiveness against MRSA” value ([1]; in words) is listed as “no effectiveness”.
In the case of `CCCCCCCCCCCCCC[N+](CC)(CC)c1ccc(N(c2ccc([N+](C)(CC)CC)cc2)c2ccc([N+](C)(CC)CC)cc2)cc1` [TET-14,1,1], the “modification of MIC on co-dosing with sub-MIC TET-14,0,0” value (CA-MRSA strain) is reported as “did not result in any significant modification”.
For “benzalkonium chloride [reference compound]”, the Lysis20 (red blood cells) was 63 µM, the “TI MRSA” value (red blood cells) was 2 and the “TI SA” value (red blood cells) was 8. The “MBEC v MRSA” value [2] was >200 µM, the “MIC v SA” value ([3]; Table 1) was 8 µM and the “MIC v SA” value ([3]; Table 2, non-resistant S. aureus strain (SH1000)) was 8 µM. For the same molecule, the “MIC SA” value ([3]; Table 6) was 8 µM, the “MIC v EC” value ([4]; Table 1) was 32 µM and the “MIC EC” value ([4]; Table 6) was 32 µM. The “MIC v EF” value ([5]; Table 1) was 8 µM, the “MIC EF” value ([5]; Table 6) was 8 µM and the “MIC v PA” value ([6]; Table 1) was 63 µM. For the same molecule, the “MIC PA” value ([6]; Table 6) was 63 µM, the “MIC HA-MRSA” value [7] was 32 µM and the “MBEC v EF” value [8] was 200 µM. For the same molecule, the “MBEC v SA” value [9] was 200 µM, the “MIC v MRSA” value ([10]; Table 2, qac-bearing MRSA strain USA300-0114) was 32 µM and the “MIC CA-MRSA” value ([10]; Table 6) was 8 µM.
For Latifolian A, the “MIC against Pseudomonas aeruginosa” value (Pseudomonas aeruginosa; Martin et al., 2011) is listed as 35 and the “inhibition of MRSA” value [1] is listed as 55%.
With `C=CC1C[N+]2(CCCCCCCCCCCCCCCCCC)CCC1C[C@H]2[C@@H](O)c1ccnc2ccc(OC)cc12.[Br-]` (stereo partly shown) [Q-18,0] the “increase in MIC of MRSA as compared to MSSA” value [11] was 32 fold.
For `COc1ccc2cc3[n+](cc2c1OC)CCc1cc2c(cc1-3)OCO2` [Berberine, berberine], the “activity against P. aeruginosa” value (Pseudomonas aeruginosa; in words, literature) is listed as “micromolar activity”.
For `C=CC1C[N+]2(CCCCCCCCCCCCCCCC)CCC1C[C@H]2[C@@H](O)c1cc[n+](C)c2ccc(OC)cc12.[Br-].[I-]` (stereo partly shown) [Q-16,1], the “susceptibility to QAC/MRSA resistance” value [11] was “unaffected by QAC resistance” and the antimicrobial activity [12] was “single-digit micromolar activity”.
With `C=CC1C[N+]2(CCCCCCCCCCCCCCCCCC)CCC1C[C@H]2[C@@H](O)c1cc[n+](C)c2ccc(OC)cc12.[Br-].[I-]` (stereo partly shown) [Q-18,1] the “susceptibility to QAC/MRSA resistance” value [11] was “unaffected by QAC resistance” and the antimicrobial activity [12] was “single-digit micromolar activity”.
